Assay type in all cases: functional
The test system of test [1] is Radical scavenging activity. Description: Antioxidant activity assessed as DPPH radical scavenging activity a 50 ug/ml after 30 mins by spectrophotometry. On the technique in general: Loss of DPPH colour is used to gauge radical scavenging.
For test [2], the system named is Radical scavenging activity. Briefly: Antioxidant activity assessed as DPPH radical scavenging activity at 100 ug/ml after 30 mins by spectrophotometry.
In test [3] the test system is Radical scavenging activity. Description: Antioxidant activity assessed as DPPH radical scavenging activity after 30 mins by spectrophotometry.
In test [4] the test system is Radical scavenging activity. Briefly: Antioxidant activity assessed as DPPH radical scavenging activity at 10 ug/ml after 30 mins by spectrophotometry.
The nature of test [5]: Antioxidant activity assessed as morpholinosydnonimine-derived peroxynitrite free radical scavenging activity after 5 mins by spectrophotometry.
Test [6] can be described thus: Antioxidant activity assessed as authentic peroxynitrite radical scavenging activity at 50 ug/ml after 5 mins by spectrophotometry.
The nature of test [7]: Antioxidant activity assessed as authentic peroxynitrite radical scavenging activity after 5 mins by spectrophotometry.
The nature of test [8]: Antioxidant activity assessed as morpholinosydnonimine-derived peroxynitrite free radical scavenging activity at 50 ug/ml after 5 mins by spectrophotometry.

The source made the active and inactive calls. No cut-off for these calls is given here. Where only a bound is given, the exact number is not on record here.

In general, IC50 refers to the concentration at which inhibition is half-maximal. Take `Cc1cc(C(C)(C)C)c(O)c(C(C)(C)C)c1` [BUTYLATED HYDROXYTOLUENE]: the Activity in test [1] came to 54.9%; in test [2], 68%; in test [4] it was 39.7%. Besides, in test [3], the IC50 was below 200 µM.
As to `C=C1CC[C@]2(C(=O)O[C@@H]3O[C@H](CO)[C@@H](O)[C@H](O)[C@H]3O)CC[C@]3(C)C(=CC[C@@H]4[C@@]5(C)CC[C@H](O[C@@H]6O[C@H](C(=O)O)[C@@H](O)[C@H](O)[C@H]6O)[C@@](C)(CO)[C@@H]5CC[C@]43C)[C@@H]2C1`, the IC50 in test [5] is below 1 µM; in test [3] it was 390 µM; in test [7] it was below 1 µM. Moreover, the result in test [6] and in test [8] was Active.
As to `CC1(C)CC[C@]2(C(=O)O)CC[C@]3(C)C(=CC[C@@H]4[C@@]5(C)CC[C@H](O[C@@H]6O[C@H](C(=O)O)[C@@H](O)[C@H](O)[C@H]6O)[C@@](C)(C=O)[C@@H]5CC[C@]43C)[C@@H]2C1`, the IC50 in test [5] is 20.4 µM; in test [3], above 500 µM; in test [7], 21.9 µM. Moreover, the outcome in test [6] and in test [8] was Active.
Take `O=C1O[C@H]([C@@H](O)CO)C(O)=C1O` [ASCORBIC ACID]: the Activity came out at 95.1% in test [1], 95% in test [2] and 94.9% in test [4]. Also, the IC50 in test [5] is below 1 µM; in test [3], below 20 µM; in test [7], 1.5 µM.
Turning to `CC1(C)CC[C@]2(C(=O)O[C@@H]3O[C@H](CO)[C@@H](O)[C@H](O)[C@H]3O)CC[C@]3(C)C(=CC[C@@H]4[C@@]5(C)CC[C@H](O[C@@H]6O[C@H](C(=O)O)[C@@H](O)[C@H](O)[C@H]6O)[C@@](C)(C=O)[C@@H]5CC[C@]43C)[C@@H]2C1`, the IC50 was 1.4 µM in test [5], above 500 µM in test [3] and 7.1 µM in test [7]. Further, the outcome in test [6] and in test [8] was Active.
As to `C=C1CC[C@]2(C(=O)O[C@@H]3O[C@H](CO)[C@@H](O)[C@H](O)[C@H]3O)CC[C@]3(C)C(=CC[C@@H]4[C@@]5(C)CC[C@H](O[C@@H]6O[C@H](C(=O)O)[C@@H](O)[C@H](O)[C@H]6O)[C@@](C)(C=O)[C@@H]5CC[C@]43C)[C@@H]2C1`, the IC50 in test [5] is 6.6 µM; in test [3], above 500 µM; in test [7], 4.9 µM. Moreover, the outcome in test [6] and in test [8] was Active.
Take `CC(C)(S)[C@@H](N)C(=O)O` [PENICILLAMINE]: the IC50 in test [5] and in test [7] was below 1 µM in each case.

The values above are taken from ChEMBL document CHEMBL2040775, “Evaluation of novel antioxidant triterpenoid saponins from the halophyte Salicornia herbacea” (Bioorg Med Chem Lett, 2012).
